pIC50: −log10 of the molar value. In brackets after ≈: the same amount, converted by molar mass. Several values for one entry are separate records, joined by “and”; a condition that tells them apart may be missing. Equal entries are not always repeated. Entries after “also recorded” stand apart in the source; their conditions may differ. Blank lines part the entries; values can stand above or below the molecule they belong to.
Columns and labels:
[1] = mouse, in vivo; cited from earlier work
[2] = test system: adriamycin/doxorubicin-resistant MCF-7 cell line; assay: Clonigenic tumor-cell killing assay, doxorubicin-resistant MCF-7 (14C-glucose, Bactec, day 9); assay type: cell-based, human
Text: (§1) The paired-ion doxorubicin:dermatan sulfate (essentially purified dermatan sulfate, 435 Type, Opocrin) of Example 28 (=doxorubicin:DS), is compared to standard doxorubicin liquid (Adria Laboratories), for tumor-cell killing potency in a clonigenic assay, using the following human breast cancer cell lines: parent MCF-7 cell line and adriamycin/doxorubicin-resistant MCF-7 cell line. For each group, five serial dilutions of each formulation were mixed on day 0, with an appropriate number of cells, growth medium and ^14 C-labelled glucose, the mixture then injected into serum vials pre-gassed with 5% CO2, and the vials incubated at 37° C. (with cells continuously exposed to drug). […] Results are shown in Table 5 for the day of peak counts (day 9): […]

[3] = test system: AT-1 prostate carcinomas; assay: Acute in vivo tumor localization and tumor-cell internalization by fluorescence microscopy; set-up: species or system Copenhagen rats
Experimental: FIG. 21A. Frozen 8-micron thick section of prostate adenocarcinoma (outer 2/3 of tumor of ca. 4 cm diameter), excised from its host rat (Copenhagen strain, syngeneic) 3 hours after intravenous injection of 5 mg/Kg doxorubicin:DS (doxorubicin in association with essentially purified dermatan sulfate, 435 Type, Opocrin) at a weight ratio of 60:40 (doxorubicin to dermatan sulfate), and fluorescence microscopy performed using a rhodamine-type filter to elicit direct fluorescence of the doxorubicin drug substance (see also Example 29). […] This is indicative of high tumor-cell internalization of the doxorubicin drug substance.
The paired-ion doxorubicin:dermatan sulfate (essentially purified dermatan sulfate, 435 Type, Opocrin) of Example 28 (=doxorubicin:DS) and standard doxorubicin liquid (Adria Laboratories) are injected at 5 mg/kg of doxorubicin i.v., into Copenhagen rats with AT-1 prostate carcinomas grown in a skin pouch (to mimic growth at deep organ sites). The rats are sacrificed at 3 hours after injection, the tumors and major organs removed, the cut tumors & organ pieces placed in OCT polymer and frozen at […], and cryostat sections cut at 8 um and coverslipped. Fluorescence microscopy is performed by exciting the sections using a rhodamine-type bandpass filter (at ca. 485 nm--in order to selectively excite doxorubicin) and assessing direct doxorubicin fluorescence (at an emission wavelength greater than 530 nm) to determine the following: […]

[4] = test system: parent MCF-7 cell line; assay: Clonigenic tumor-cell killing assay, parent MCF-7 (14C-glucose, Bactec, day 9); assay type: cell-based; settings: Homo sapiens, MCF7, 216 h
Text: as §1

[5] = Acute in vivo toxicity of doxorubicin:dermatan sulfate vs standard doxorubicin (day of death); set-up: species or system male Balb/c mice; settings: 22.5 mg/Kg i.v.
Text: The days of death are: doxorubicin:DS: modal day=6, mean=5.5±0.9 SE; standard doxorubicin: modal day=day 5, mean=4.8±0.5SE.

[6] = physchem; settings: water
Text: Multiple batches of Ferrioxamine:Dermatan Sulfate Agent have been prepared.

[7] = Gd(III) when chelated by DTPA; cited from earlier work
[8] = test system: syngeneic breast adenocarcinoma; settings: rat, in vivo, iv; cited from earlier work
[9] = test system: antithrombin III; settings: cited from earlier work
[10] = test system: AT-1 prostate adenocarcinoma; assay: MRI contrast enhancement of AT-1 prostate adenocarcinoma; assay type: in vivo, Copenhagen rats
Experimental: (§2) FIG. 14A, FIG. 14B, FIG. 14C and FIG. 14D show MRI 4.7 Tesla, T1-weighted images of Copenhagen rats with the AT-1 prostate tumor model (as in FIG. 13A, FIG. 13B, FIG. 13C and FIG. 13D), but rats are injected i.v. with Ferrioxamine Selective Contrast Agent, wherein the Active is non-covalently bound to Oversulfated Dermatan Sulfate, the Agent lyophilized and reconstituted with water just prior to administration at a concentration of 0.332 mmol/mL Fe(III) and administered at the usual dose of 0.155 mmol of Fe(III) per Kg.
as §2, with “15A,” for “14A,”, “15B,” for “14B,”, “15C” for “14C”, “15D” for “14D”, “Chondroitin” for “Dermatan”
as §2, with “16A,” for “14A,”, “16B,” for “14B,”, “16C” for “14C”, “16D” for “14D”, “a non-anticoagulant GAG, Heparan” for “Oversulfated Dermatan”
FIG. 19A, FIG. 19B, FIG. 19C, FIG. 19D and FIG. 19E show T1-weighted images at 4.7 Tesla (TR/TE=250/8) of Copenhagen rats with syngeneic AT-1 prostate adenocarcinomas inoculated into previously prepared skin pouches [Hahn et al. (1993)], and imaged at diameters of 1.0-2.5 cm.
Based on low anticoagulant activity, safety and projected site-localizationpotential, certain alternative glycosaminoglycan carriers and certain alternative physical forms of the resulting Selective MRI Contrast Agents are compared for their relative in vivo potencies of carrier-mediated tumor localization of bound Ferrioxamine. Because of its high spatial resolution and capacity to detect subtle quantitative differences in agent localization, the AT-1 prostate tumor model of Example 19 is used.

[11] = comparison value; cited from earlier work
[12] = T1 relaxivity (R1), IBM PC20 Minispectrometer / ICP-AA metal measurement; assay type: physicochemical
Experimental: Batch quantities of the Fe(III) chelate of deferoxamine are prepared as follows. Deferoxamine mesylate (methanesulfonate) (Ciba-Geigy Limited, Basel, Switzerland), 390 g, is dissolved in pharmaceutical-grade water. Alternatively, the chloride salt of deferoxamine may be used. […] This final batch volume is adjusted as desired, typically to a final volume of 2600 mL. Any remaining trace amounts of unreacted Fe(O)OH are removed and the solution also made aseptic, by passing the supernatant through a 0.22 μm Millipore GV-type filter in a Class 100 laminar flow hood. The resulting batch is stored at 4° C. in an autoclaved, sealed glass container until further use (see Examples below). The final concentration of ferrioxamine (DFe) is determined once again by UV-Visible absorbance spectrophotometry at 430 nm.
The pH is adjusted to 7.0 by addition of 1.0 N NaOH. […] In the case of gadolinium oxide, neutralization with 1.0 N NaOH is not needed. […] This precipitate is rewashed with ethanol and centrifuged (as above), washed with acetone plus centrifuged, and the collected precipitate dried over a stream of dry nitrogen.

[13] = test system: acute myocardial infarct; assay: MRI contrast enhancement of acute myocardial infarcts; assay type: in vivo, German Shepherd dogs; settings: 0.155 mmol/Kg
Text: FIG. 11A, FIG. 11B, FIG. 11C and FIG. 11D show T1-weighted MRI ECG-gated cardiovascular images performed at 0.5 Tesla, before (Pre) and after (Post) rapid intravenous (i.v.) infusion of Ferrioxamine:Dermatan Sulfate Selective Paramagnetic Contrast Agent prepared as in Examples 2 and 5, and injected i.v. at an Iron(III) dose of 0.155 mmol/Kg into German Shepherd dogs with acute, 90-min myocardial infarcts (ligature of proximal left anterior descending coronary artery) followed by reperfusion for ca. 90 minutes prior to contrast agent infusion.
In these studies, infarct sizes and positions are documented by double dye infusion performed immediately after MRI imaging.

[14] = test system: syngeneic breast adenocarcinoma; assay: MRI contrast enhancement of breast adenocarcinoma inoculated in liver (and metastases); assay type: in vivo, Fisher 344 female rats; settings: 7 MPI, 0.155 mmol/Kg i.v.
Text: FIG. 2A, FIG. 2B, FIG. 3A, FIG. 3B, FIG. 4A, FIG. 4B, FIG. 4C, FIG. 4D and FIG. 8A, FIG. 8B and FIG. 8C show T1-weighted MRI images (TR/TE=800/45, 550/23 and 600/45) performed at 1.0 and 1.5 Tesla, before (Pre) and after (Post) intravenous (i.v.) injection of Ferrioxamine:Dermatan Sulfate Selective Paramagnetic Contrast Agent, prepared as in Examples 2 and 5, and injected i.v. at a Ferrioxamine dose of 0.155 mmol/Kg into Fisher 344 female rats, with syngeneic breast adenocarcinoma inoculated previously into the liver, such that tumor diameters at the time of imaging are between 1.0 cm and 2.5 cm.
(§3) Tumors are not conspicuous on standard T1-weighted Precontrast images. […] The sustained intervals shown in FIG. 8A, FIG. 8B and FIG. 8C are much longer than those typically reported for Gd:DTPA dimeglumine contrast enhancement at body organ sites.
T1-weighted MRI images (TR-TE=800/45) are performed at 1.0 Tesla, before (Pre) and after (Post) intravenous (i.v.) injection of Gd:MPD-DTPA:DS (DS=435 Type, Opocrin) at a dose of 0.155 mmol/kg into Fisher 344 female rats with syngeneic breast adenocarcinomas inoculated by trocar into the livers, as in Example 18 (above). A T2 scout image (TR/TE=2100/85) is performed in advance of the T1 image contrast series, in order to identify the approximate location(s) of tumor nodule(s) (FIG. 18A). […]

[15] = test system: syngeneic breast adenocarcinoma; assay: Special histologic iron stain of breast adenocarcinoma; assay type: in vivo, Fisher 344 female rats; settings: central tumor, 7-10 MPI
Text: FIG. 6. Special histologic stain (heated ferroferricyanide reaction) of formalin-fixed section of syngeneic breast adenocarcinoma excised from liver inoculation site of Fisher 344 female rats: […] Sulfate Selective MRI Contrast Agent.
as §3

Molecule: COc1cccc2c1C(=O)c1c(O)c3c(c(O)c1C2=O)C[C@@](O)(C(=O)CO)C[C@@H]3O[C@H]1C[C@H](N)[C@H](O)[C@H](C)O1 [Standard doxorubicin]
reported LD90 in mice [1]: 22.5 mg/kg
ability to overcome resistance [2]: unable to do so
pIC50 ([2]; Homo sapiens, MCF7, 216 h, day 9): 4.65
IC90 ([2]; day 9): not achieved
direct drug fluorescence in tumor cells ([3]; 5 mg/Kg i.v., 3 hours): markedly lower fluorescence
fluorescence of endothelium / microvessels ([3]; 5 mg/Kg i.v., 3 hours): general lack of fluorescence in and around the large tumor microvessel; also recorded: general lack of fluorescence in and around tumor microvessel (image center) and in tumor-cell nuclei
fluorescence of tumor-cell nuclei ([3]; 5 mg/Kg i.v., 3 hours): no identifiable fluorescence in the tumor-cell nuclei
Fluorescence near capillaries (scale of 0 to 4+) ([3]; 2/3 of regions): 0
Fluorescence away from capillaries (scale of 0 to 4+) ([3]; Adriamycin PFS: most regions, doxorubicin:DS: ca. 8/10 of regions): 0
Endothelial fluorescence (scale of 0 to 4+) ([3]; rat, in vivo): 0
Endothelial nuclear fluorescence (scale of 0 to 4+) ([3]; rat, in vivo): 0
pIC50 [4]: 7.70
IC90 [4]: 60 nM
modal day of death [5]: 5 days
mean day of death ([5]; ± SE): 4.8 ± 0.5 days

solubility [6]: 320 mg/mL (≈ 571 mM)
Molecule: CC(=O)N(O)CCCCCNC(=O)CCC(=O)N(O)CCCCCNC(=O)CCC(=O)N(O)CCCCCN [deferoxamine]

Molecule: O=C([O-])CN(CCN(CC(=O)[O-])CC(=O)O)CCN(CC(=O)[O-])CC(=O)O.[Gd+3] [Gd:DTPA]
in vitro R1 [7]: 4.0-4.3 [mmol.sec]^-1
t1/2 at the site [8]: 12 to 20 min

Molecule: dermatan sulfate
inhibition of antithrombin III [9]: neither dermatan sulfate nor its 8-12 unit fragment inhibits

Molecule: CNC[C@H](O)[C@@H](O)[C@H](O)[C@H](O)CO.CNC[C@H](O)[C@@H](O)[C@H](O)[C@H](O)CO.O=C([O-])CN(CCN(CC(=O)[O-])CC(=O)O)CCN(CC(=O)[O-])CC(=O)O.[Gd+3] [Gd:DTPA dimeglumine]
MRI contrast enhancement of AT-1 tumor ([10]; 7 MPI): the outer rim is not well delineated
MRI contrast enhancement of AT-1 tumor ([10]; 20 MPI): Marked early contrast fading occurs overall in the tumor
MRI contrast enhancement of AT-1 tumor ([10]; 40 MPI): enhancement is nearly reverted to background levels; also recorded: enhancement reverts to essentially background levels
MRI contrast enhancement of AT-1 tumor ([10]; 60 MPI): no residual contrast, except for central cystic regions
LD50 [11]: 4.0 mmol/kg

Molecule: CC(=O)N([O-])CCCCCNC(=O)CCC(=O)N([O-])CCCCCNC(=O)CCC(=O)N([O-])CCCCCN.[Fe+3] [Ferrioxamine]
R1 (T1 relaxivity) [12]: 1.5-1.8 [mmol.sec]^-1 and 1.6-1.8 [mmol.sec]^-1 and 1.6 (mmol.sec)^-1
MRI enhancement of infarct, active without carrier [13]: no detectible enhancement
MRI enhancement of infarct, active without carrier ([13]; listed as Ferrioxamine Agent Alone): no detectable enhancement
MRI contrast enhancement of breast tumor in liver [14]: only very slight or nonexistent
staining positivity for iron [15]: complete absence of staining positivity

Source: patent US6106866A, “In vivo agents comprising cationic drugs, peptides and metal chelators with acidic saccharides and glycosaminoglycans, giving improved site-selective localization, uptake mechanism, sensitivity and kinetic-spatial profiles, including tumor sites” (Access Pharmaceuticals, Inc., priority 1995, dated 2000)
